# Assay results reported in patent US12138256B2, “Treatment of cardiopulmonary disorders” (Bayer Aktiengesellschaft, priority 2021, dated 2024).
# Test system: pulmonary vascular resistance (PVR)
# Test: Phase 1b, patients with PAH or CTEPH, inhaled single doses, right heart catheterization: PVR and mPAP (C-4.4)
# Assay type: in vivo, human
# Experimental: Patients with PAH or CTEPH were treated in a clinical phase 1b study with escalating orally inhaled single* doses of 240 μg (2 capsules of 120 μg), 480 μg, 1000 μg, 2000 (2 capsules of 1000 μg) or 4000 μg (4 capsules of 1000 μg) of a dry powder of example 4 (see under D-1, e.g. tables 17 and 20), inserted into a handheld inhalation device, inhaled by deep inhalative breath into the deep parts of the lung. (*single dose means the administration of one dosage form/capsule as well as administration of two or more dosage forms/capsules simultaneously or consecutively within a short time period). The included patients had no background treatment with standard of care (SoC) medication for PAH or CTEPH (such as endothelin antagonists, prostanoids, phosphodiesterase type 5 inhibitor or soluble guanylate cyclase stimulators). Patients in this study underwent invasive right heart catheterization as medically indicated routine diagnostic. Primary objective of the study was to investigate the peak percent reduction from baseline in PVR. Patients had to have a baseline pulmonary artery pressure (mPAP) of ≥25 mmHg and a PVR of ≥400 dyn·sec·cm^−5 (5 Wood Units) and were not to show vaso-responsiveness to initial iNO inhalation testing to be included in the per protocol analysis. Plasma concentrations (pharmacokinetics) of the administered drug at several time points after administration were measured and safety and tolerability was assessed.
# The study is divided into two parts, Part A and Part B. In Part A escalating aforementioned single doses were administered to patients without background treatment with standard of care (SoC) medication for PAH or CTEPH (such as endothelin antagonists, prostanoids, phosphodiesterase type 5 inhibitor or soluble guanylate cyclase stimulators). In Part B, after finalization of Part A, a selected dose from PartA will be tested in further patients without background SoC treatment (group 1) and additionally in patients on monotherapy with SoC (group 2) and on dual combination therapy with SoC (group 3).
# The PVR is a derived parameter from parameters directly measured during the right heart catheterization procedure. The direct parameters included in the calculation are: mean pulmonary arterial pressure [mmHg](mPAP), pulmonary capillary wedge pressure [mmHg] (PCWP), and cardiac output [l/min] (CO). The PVR is calculated according to the formula: PVR [dyn*see*cm^−5]=80*(mPAP-PCWP)/CO.
# Overall 38 patients received a dose of dry powder of example 4. A total of 4 patients in each dose group were included into the per protocol set as planned (total 20 patients). A dose-dependent mean change of PVR from baseline could be clearly observed peaking in an enduring mean change of approximately −30% in the 2000 μg and 4000 μg groups (for details of PVR see FIG. 82 and table C4.4.1). The decreases in PVR were predominantly driven by decreases in pulmonary arterial pressure (for details of mean PAP see FIG. 83 and table C4.4.2). A mean peak change level of −20%—as the predefined relevant threshold level—was clearly exceeded peaking in the 2000 μg and 4000 μg groups (mean peak changes were: −21.0%, −16.1%, −25.9%, −38.1%, −36.3% for 240, 480, 1000, 2000, and 4000 μg, respectively). The magnitude of mean change in PVR of −30% from baseline was at the same level as for the inhaled competitor Treprostinil (Tyvaso®) after single administration in a historical comparison [Voswinckel et al, Journal of American College of Cardiology Vol. 48, No. 8, 2006 Oct. 17, 2006:1672-81]. However, the effect after example 4 application was advantageously sustained with no decrease in response until the end of the measurement period of 3 h (a measurement period of >3 h was technically not feasible for the patients with right heart catheter in the study). […] Increase of systemic cGMP (cyclic Guanosine Monophosphate) confirmed strong target engagement of sGC activation. […]
# [1] = 2000 μg, 0 D 00 H 00 M (baseline)
# [2] = 4000 μg, 0 D 00 H 00 M (baseline)
smiles,measurement,setting,value
"O=C(O)c1ccc(CCN(CCc2ccccc2OCc2ccc(-c3ccc(C(F)(F)F)cc3)cc2Cl)[C@H]2CCCc3nc(C(=O)O)ccc32)cc1 [example 4, (5S)-{[2-(4-Carboxyphenyl)ethyl][2-(2-{[3-chloro-4′-(trifluoromethyl)biphenyl-4-yl]methoxy}phenyl)-ethyl]amino}-5,6,7,8-tetrahydroquinoline-2-carboxylic acid]","pulmonary vascular resistance (PVR), mean ± SD","1000 μg, 0 D 01 H […]",542.130 ± 187.227 dyn·sec·cm^−5
same,"mean pulmonary arterial pressure (mPAP), mean ± SD","1000 μg, 0 D 02 H 00 M",32.3 ± 9.0 mmHg
same,"pulmonary vascular resistance (PVR), mean ± SD","1000 μg, 0 D 02 H 00 M",487.951 ± 144.546 dyn·sec·cm^−5
same,"mean pulmonary arterial pressure (mPAP), mean ± SD","1000 μg, 0 D 02 H […]",33.5 ± 10.7 mmHg
same,"pulmonary vascular resistance (PVR), mean ± SD","1000 μg, 0 D 02 H […]",537.812 ± 204.640 dyn·sec·cm^−5
same,"pulmonary vascular resistance (PVR), mean ± SD","1000 μg, 0 D 03 H 00 M",535.636 ± 235.786 dyn·sec·cm^−5
same,mean peak change of PVR from baseline,2000 μg,−38.1%
same,mean change of PVR from baseline,"2000 μg and 4000 μg groups, single inhaled dose, per protocol set N=4 each",approximately −30%
same,"mean pulmonary arterial pressure (mPAP), mean ± SD",[1],33.5 ± 3.4 mmHg
same,"pulmonary vascular resistance (PVR), mean ± SD",[1],468.608 ± 20.537 dyn·sec·cm^−5
same,"mean pulmonary arterial pressure (mPAP), mean ± SD","2000 μg, 0 D 00 H 30 M",33.3 ± 6.3 mmHg
same,"pulmonary vascular resistance (PVR), mean ± SD","2000 μg, 0 D 00 H 30 M",464.586 ± 58.200 dyn·sec·cm^−5
same,"mean pulmonary arterial pressure (mPAP), mean ± SD","2000 μg, 0 D 01 H 00 M",30.8 ± 5.6 mmHg
same,"pulmonary vascular resistance (PVR), mean ± SD","2000 μg, 0 D 01 H 00 M",421.730 ± 81.602 dyn·sec·cm^−5
same,"mean pulmonary arterial pressure (mPAP), mean ± SD","2000 μg, 0 D 01 H 30 M",28.5 ± 7.3 mmHg
same,"pulmonary vascular resistance (PVR), mean ± SD","2000 μg, 0 D 01 H 30 M",340.782 ± 82.566 dyn·sec·cm^−5
same,"mean pulmonary arterial pressure (mPAP), mean ± SD","2000 μg, 0 D 02 H 00 M",27.0 ± 6.1 mmHg
same,"pulmonary vascular resistance (PVR), mean ± SD","2000 μg, 0 D 02 H 00 M",339.924 ± 105.884 dyn·sec·cm^−5
same,"mean pulmonary arterial pressure (mPAP), mean ± SD","2000 μg, 0 D 02 H 30 M",27.3 ± 6.0 mmHg
same,"pulmonary vascular resistance (PVR), mean ± SD","2000 μg, 0 D 02 H 30 M",338.404 ± 87.381 dyn·sec·cm^−5
same,"mean pulmonary arterial pressure (mPAP), mean ± SD","2000 μg, 0 D 03 H 00 M",27.5 ± 5.2 mmHg
same,"pulmonary vascular resistance (PVR), mean ± SD","2000 μg, 0 D 03 H 00 M",327.284 ± 25.882 dyn·sec·cm^−5
same,mean peak change of PVR from baseline,4000 μg,−36.3%
same,"mean pulmonary arterial pressure (mPAP), mean ± SD",[2],46.0 ± 8.1 mmHg
same,"pulmonary vascular resistance (PVR), mean ± SD",[2],713.998 ± 117.204 dyn·sec·cm^−5
same,"mean pulmonary arterial pressure (mPAP), mean ± SD","4000 μg, 0 D 00 H 30 M",43.0 ± 4.6 mmHg
same,"pulmonary vascular resistance (PVR), mean ± SD","4000 μg, 0 D 00 H 30 M",616.894 ± 97.774 dyn·sec·cm^−5
same,"mean pulmonary arterial pressure (mPAP), mean ± SD","4000 μg, 0 D 01 H 00 M",41.3 ± 4.6 mmHg
same,"pulmonary vascular resistance (PVR), mean ± SD","4000 μg, 0 D 01 H 00 M",542.417 ± 97.103 dyn·sec·cm^−5
same,"mean pulmonary arterial pressure (mPAP), mean ± SD","4000 μg, 0 D 01 H 30 M",40.3 ± 5.1 mmHg
same,"pulmonary vascular resistance (PVR), mean ± SD","4000 μg, 0 D 01 H 30 M",573.812 ± 123.865 dyn·sec·cm^−5
same,"mean pulmonary arterial pressure (mPAP), mean ± SD","4000 μg, 0 D 02 H 00 M",40.0 ± 5.3 mmHg
same,"pulmonary vascular resistance (PVR), mean ± SD","4000 μg, 0 D 02 H 00 M",501.07 ± 97.979 dyn·sec·cm^−5
same,"mean pulmonary arterial pressure (mPAP), mean ± SD","4000 μg, 0 D 02 H […]",39.8 ± 3.0 mmHg
same,"pulmonary vascular resistance (PVR), mean ± SD","4000 μg, 0 D 02 H […]",526.648 ± 144.679 dyn·sec·cm^−5
same,"mean pulmonary arterial pressure (mPAP), mean ± SD","4000 μg, 0 D 03 H 00 M",39.8 ± 4.1 mmHg
same,"pulmonary vascular resistance (PVR), mean ± SD","4000 μg, 0 D 03 H 00 M",493.103 ± 130.480 dyn·sec·cm^−5
same,duration of sustained PVR effect with no decrease in response,end of the measurement period,≥ 3 h
same,tolerability,single inhaled doses 240 to 4000 μg,Overall good tolerability was seen including the highest dose of 4000 μg
